# Structures can show the parent of a compound that is named as a salt.
# Target: T1, 5HT2 Receptors (Rattus norvegicus, UniProt P14842)
# T1 construct: from tissue; host or cells: rat external jugular vein (isolated, male Wistar)
# Test: Apparent antagonist dissociation constant (KB) at 5HT2 receptors, serotonin-induced contraction of isolated rat external jugular vein
# Assay type: cell-based, rat (male Wistar)
# Conditions: not given
# From the text: Male Wistar rats (about 150-300 gram weight) were killed and their external jugular veins and thoracic aortas dissected free of connective tissue, cannulated in situ and placed in a modified Krebs' bicarbonate buffer in a suitable tissue bath. Two L-shaped 30-gauge stainless-steel hypodermic needles were inserted in each cannula and the dissected vessels gently pushed onto the needles. One needle was attached with thread to a stationary glass rod and the other to the transducer. [The procedure employed was that described by Hooker, Calkins and Fleisch, Blood Vessels, 14, 1, (1977) for use with circular smooth muscle preparations.]
# The modified Krebs' bicarbonate buffer was composed of the following (concentrations in millimoles): sodium chloride, 118.2; potassium chloride, 4.6; calcium chloride dihydrate, 1.6; potassium dihydrogenphosphate, 1.2; magnesium sulfate, 1.2; dextrose, 10.0; sodium bicarbonate, 24.8; and water q.s. to 1000 g. The tissue baths were maintained at 37° C. and were aerated with 95% oxygen: 5% carbon dioxide (v:v). An initial optimum resting force of 1 g and 4 g was applied to the jugular vein and aorta, respectively. Isometric contractions were recorded as changes in grams of force on a Beckman Dynograph with Statham UC-3 transducers and microscale accessory attachment. Tissues were allowed to equilibrate 1 to 2 hours before exposure to drugs. Control responses to serotonin in the jugular vein and to norepinephrine in the aorta were obtained. The vessels were then incubated with appropriate concentrations of the test compound for one hour. Responses to serotonin or to norepinephrine were then repeated in the presence of the test compound. Contraction to serotonin was evaluated in the jugular vein since this tissue produces marked responses to serotonin in the absence of alpha receptors. See Cohen and Wiley, J. Pharm. Exp. Ther., 205, 400 (1978). Alpha receptor antagonist activity was evaluated in the aorta.
# Apparent antagonist dissociation constants were determined for each concentration of the test compound according to the following equation: [formula] wherein [B] is the concentration of the antagonist and the dose ratio is the ED50 of the agonist in the presence of the antagonist divided by the control ED50. […] The -log KB values obtained for representative sensitive compounds of this invention and are given below in Table 1. ln the Table, column I provides the Example Number of the compound evaluated in the screen; columns 2-6, the identity of the compound evaluated in the screen when taken with the structure provided; and column 7, the apparent dissociation constant for the test compound.
# T1 sequence (P14842 whole entry): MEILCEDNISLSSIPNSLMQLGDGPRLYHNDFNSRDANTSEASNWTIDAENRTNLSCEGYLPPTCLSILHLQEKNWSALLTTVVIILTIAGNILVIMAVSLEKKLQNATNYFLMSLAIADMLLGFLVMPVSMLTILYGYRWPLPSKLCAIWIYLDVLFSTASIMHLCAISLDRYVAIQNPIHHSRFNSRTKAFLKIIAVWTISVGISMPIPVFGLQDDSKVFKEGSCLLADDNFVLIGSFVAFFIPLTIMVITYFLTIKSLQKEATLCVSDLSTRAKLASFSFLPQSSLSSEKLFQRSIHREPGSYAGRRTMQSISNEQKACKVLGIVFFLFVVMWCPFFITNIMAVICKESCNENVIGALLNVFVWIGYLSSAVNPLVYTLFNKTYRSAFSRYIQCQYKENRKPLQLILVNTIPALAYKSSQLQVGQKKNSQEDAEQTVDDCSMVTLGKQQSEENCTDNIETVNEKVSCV
row,SMILES,Kb [nM]
1,"CCn1cc2c3c(cccc31)[C@H]1C[C@@H](C(=O)NC3CCCCC3)CN(C)[C@@H]1C2 [Example 10, (8β)-N-Cyclohexyl-1-ethyl-6-methylergoline-8-carboxamide]",0.562
2,"CC(C)n1cc2c3c(cccc31)[C@H]1C[C@@H](C(=O)NC3CCCCC3O)CN(C)[C@@H]1C2 (stereo partly drawn) [Example 14, (8β)-N-(2-Hydroxycyclohexyl)-1-isopropyl-6-methylergoline-8-carboxamide]",0.0275
3,"CCCN1C[C@H](C(=O)NC2CCCCC2)C[C@@H]2c3cccc4c3c(cn4C(C)C)C[C@H]21 [Example 3, (8β)-N-Cyclohexyl-1-isopropyl-6-n-propylergoline-8-carboxamide]",0.794
4,"CO[C@H]1CC[C@@H](NC(=O)[C@@H]2C[C@@H]3c4cccc5c4c(cn5C)C[C@H]3N(C)C2)CC1 [Example 6, (8β)-cis-N-(4-Methoxycyclohexyl)-1,6-dimethylergoline-8-carboxamide maleate]",0.269
5,"CCn1cc2c3c(cccc31)[C@H]1C[C@@H](C(=O)N[C@H]3CC[C@@H](OC)CC3)CN(C)[C@@H]1C2 [Example 7, (8β)-cis-N-(4-Methoxycyclohexyl)-1-ethyl-6-methylergoline-8-carboxamide maleate]",0.229
6,"CN1C[C@H](C(=O)NC2CCCCC2)C[C@@H]2c3cccc4c3c(cn4C)C[C@H]21 [Example 8, (8β)-N-Cyclohexyl-1,6-dimethylergoline-8carboxamide]",0.2
7,"CC(C)n1cc2c3c(cccc31)[C@H]1C[C@@H](C(=O)NC3CCCC3)CN(C)[C@@H]1C2 [Example 9, (8β)-N-Cyclopentyl-1-isopropyl-6-methylergoline-8-carboxamide]",0.0468
8,"CC1CCC(NC(=O)[C@@H]2C[C@@H]3c4cccc5c4c(cn5C(C)C)C[C@H]3N(C)C2)CC1 (stereo partly drawn) [Example 13, (8β)-N-(4-Methylcyclohexyl)-1-isopropyl-6-methylergoline-8-carboxamide]",6.46
9,"CC(C)n1cc2c3c(cccc31)[C@H]1C[C@@H](C(=O)NC3CCCCCC3)CN(C)[C@@H]1C2 [Example 12, (8β)-N-Cycloheptyl-1-isopropyl-6-methylergoline-8-carboxamide]",1.05
10,"CO[C@H]1CC[C@H](NC(=O)[C@@H]2C[C@@H]3c4cccc5c4c(cn5C(C)C)C[C@H]3N(C)C2)CC1 (relative stereo) [Example 5, (8β)-trans-N-(4-Methoxycyclohexyl)-1-isopropyl-6-methylergoline-8-carboxamide]",0.186

# Same assay, conditions: rat external jugular vein, antagonism of serotonin contraction, 1 h incubation, 37° C; read-out: 5HT2 -Log KB (apparent dissociation constant) (converted)
row,SMILES,Kb [nM]
1,"CO[C@H]1CC[C@@H](NC(=O)[C@@H]2C[C@@H]3c4cccc5c4c(cn5C(C)C)C[C@H]3N(C)C2)CC1 [Example 4, (8β)-cis-N-(4-Methoxycyclohexyl)-1-isopropyl-methylergoline-8-carboxamide]",0.186
2,"CC(C)n1cc2c3c(cccc31)[C@H]1C[C@@H](C(=O)N[C@H]3CC[C@H](O)CC3)CN(C)[C@@H]1C2 [Example 11, (8β)-trans-N-(4-Hydroxycyclohexyl)-1-isopropyl-methylergoline-8-carboxamide]",6.46
3,"CC(C)n1cc2c3c(cccc31)[C@H]1C[C@@H](C(=O)N(C)C3CCCCC3)CN(C)[C@@H]1C2 [Example 2, (8β-N-Cyclohexyl-N-methyl-1-isopropyl-6-methylergoline-8-carboxamide maleate]",1
